Measurements: patent publication US7846957B2, “Aromatase inhibition to enhance assisted reproduction” (Ares Trading S.A., priority 2001, dated 2010)

Experiments:
Format in all cases: in vivo, human
[1] = test system: patients who either failed to ovulate or ovulated with an endometrial thickness <5 mm in response to CC; assay: Letrozole cycles vs CC cycles in patients with inadequate response to CC (Example 2)
Experimental: HCG 10,000 IU was given to trigger ovulation. CC was given in a dose of 50-100 mg on days 3-7 or 5-9.

[2] = test system: infertile patients (3 with PCOS and 4 with unexplained infertility); assay: Letrozole alone in a single dose, ovarian stimulation and cycle monitoring for IUI (Example 3)
Experimental: The estradiol levels in 9 treatment cycles in 7 infertile patients (3 with PCOS and 4 with unexplained infertility) undergoing ovarian stimulation and cycle monitoring for IUI who received a single 20 mg dose of letrozole on day 3 of the cycle. Follicle development was monitored by transvaginal ultrasound and by serum levels of estradiol and LH.

[3] = test system: PCOS and unexplained infertility undergoing IUI; assay: Letrozole for Ovulation Induction: Summary (Example 5)
Source text: Patient Group: PCOS and unexplained infertility undergoing IUI.
Results: Pregnancy rate was higher with Letrozole VS CC in both kinds of regimen, ovulation rate was higher with Letrozole VS CC in PCOS patients (not reported for unexplained fertility), endometrial thickness was better with Letrozole.

[4] = mean, single 20 mg dose on day 3
[5] = mean, single 20 mg dose on day 3, listed as letrozole
[6] = single 20 mg dose on day 3, spread in brackets

## CCN(CC)CCOc1ccc(C(=C(Cl)c2ccccc2)c2ccccc2)cc1.O=C(O)CC(O)(CC(=O)O)C(=O)O [CC]
[1]; Mean
  Day of hCG administration, Mean: 12.6
  Endometrial Thickness (Cm.), Mean: 0.5 Cm.
  Estradiol (pmol/L) on day of hCG administration, Mean: 2145 pmol/L
  Estradiol per mature follicle (pmol/L), Mean: 1278 pmol/L
  Follicles > 1.5 Cm on day of hCG administration, Mean: 1.9
  LH on day of hCG administration (IU/L), Mean: 16 IU/L
  Number of Days from last letrozole tablet to hCG day, Mean: 4.4
[1]; Median
  Day of hCG administration, Median: 12
  Endometrial Thickness (Cm.), Median: 0.4 Cm.
  Estradiol (pmol/L) on day of hCG administration, Median: 1668 pmol/L
  Estradiol per mature follicle (pmol/L), Median: 1486 pmol/L
  Follicles > 1.5 Cm on day of hCG administration, Median: 2
  LH on day of hCG administration (IU/L), Median: 8 IU/L
  Number of Days from last letrozole tablet to hCG day, Median: 4
[1]; Range
  Day of hCG administration, Range: 11-16
  Endometrial Thickness (Cm.), Range: 0.4-0.8 Cm.
  Estradiol (pmol/L) on day of hCG administration, Range: 362 to 5210 pmol/L
  Estradiol per mature follicle (pmol/L), Range: 177 to 2404 pmol/L
  Follicles > 1.5 Cm on day of hCG administration, Range: 1-5
  LH on day of hCG administration (IU/L), Range: 3-66 IU/L
  Number of Days from last letrozole tablet to hCG day, Range: 2-7

## N#Cc1ccc(C(c2ccc(C#N)cc2)n2cncn2)cc1 [Letrozole, letrozole]
[2]; 7 patients, 9 treatment cycles, single 20 mg dose
  Pregnancy was achieved (patients): one
[2]; [4]
  Estradiol on hCG day (pmol/L): 831 (359) pmol/L
  Estradiol/mature follicle (pmol/L): 390 (74) pmol/L
[2]; [5]
  Estradiol on hCG day: 831 pmol/L
  Estradiol/mature follicle: 390 pmol/L
[2]; [6]
  Endometrial thickness on hCG day (cm): 0.9 (0.11) cm
  Follicles > 1.5 cm: 2.29 (1.3)
  LH (IU/L): 19.1 (12.7) IU/L
[3]; Letrozole VS CC in PCOS patients
  ovulation rate: higher
[3]; Letrozole VS CC in both kinds of regimen (alone in PCOS; plus FSH in unexplained infertility)
  Pregnancy rate: higher
[3]; Letrozole vs CC
  endometrial thickness: better
